From patent US8574563B2 (Bristol-Myers Squibb Company, priority 2006, dated 2013)

System: HCV 1b-377-neo replicon cells
Assay: HCV replicon assay, HCV 1b-377-neo replicon cells (1b FRET)
Type: cell-based, Hepatitis C virus genotype 1b
Conditions: Hepatitis C virus, HCV 1b-377-neo replicon cells; HCV 1b genotype; read-out: EC50 range against HCV 1b (Table 2, Range)
Outline: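 FRET-based replicon assay in HCV 1b-377-neo cells, including a comparison line carrying the NS5A Y2065H mutation that confers resistance to a reference compound.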

COC(=O)N[C@H](C(=O)N1C[C@@H](O)C[C@H]1c1ncc(-c2ccc(-c3ccc(-c4cnc([C@@H]5C[C@H](O)CN5C(=O)[C@@H](NC(=O)OC)C(C)C)[nH]4)cc3)cc2)[nH]1)C(C)C [JG-9, methyl ((1S)-1-(((2S,4S)-4-hydroxy-2-(5-(4′-(2-((2S,4S)-4-hydroxy-1-((2S)-2-((methoxycarbonyl)amino)-3-methylbutanoyl)-2-pyrrolidinyl)-1H-imidazol-5-yl)-4-biphenylyl)-1H-imidazol-2-yl)-1-pyrrolidinyl)carbonyl)-2-methylpropyl)carbamate]
EC50: 0.001 to 0.999 nM

COC(=O)N[C@H](C(=O)N1C[C@@H](F)C[C@H]1c1ncc(-c2ccc(-c3ccc(-c4cnc([C@@H]5C[C@H](F)CN5C(=O)[C@@H](NC(=O)OC)C(C)C)[nH]4)cc3)cc2)[nH]1)C(C)C [JG-10, methyl ((1S)-1-(((2S,4S)-4-fluoro-2-(5-(4′-(2-((2S,4S)-4-fluoro-1-((2S)-2-((methoxycarbonyl)amino)-3-methylbutanoyl)-2-pyrrolidinyl)-1H-imidazol-5-yl)-4-biphenylyl)-1H-imidazol-2-yl)-1-pyrrolidinyl)carbonyl)-2-methylpropyl)carbamate]
EC50: 1 to 99 nM

COC(=O)N[C@@H](CC(C)C)C(=O)N1C[C@H](F)C[C@H]1c1ncc(-c2ccc(-c3ccc(-c4cnc([C@@H]5C[C@@H](F)CN5C(=O)[C@H](CC(C)C)NC(=O)OC)[nH]4)cc3)cc2)[nH]1 [JG-12, methyl ((1S)-1-(((2S,4R)-4-fluoro-2-(5-(4′-(2-((2S,4R)-4-fluoro-1-((2S)-2-((methoxycarbonyl)amino)-4-methylpentanoyl)-2-pyrrolidinyl)-1H-imidazol-5-yl)-4-biphenylyl)-1H-imidazol-2-yl)-1-pyrrolidinyl)carbonyl)-3-methylbutyl)carbamate]
EC50: 0.001 to 0.999 nM

COC(=O)N[C@@H](C)C(=O)N1C[C@@H](F)C[C@H]1c1ncc(-c2ccc(-c3ccc(-c4cnc([C@@H]5C[C@H](F)CN5C(=O)[C@H](C)NC(=O)OC)[nH]4)cc3)cc2)[nH]1 [JG-13, methyl ((1S)-2-((2S,4S)-4-fluoro-2-(5-(4′-(2-((2S,4S)-4-fluoro-1-(N-(methoxycarbonyl)-L-alanyl)-2-pyrrolidinyl)-1H-imidazol-5-yl)-4-biphenylyl)-1H-imidazol-2-yl)-1-pyrrolidinyl)-1-methyl-2-oxoethyl)carbamate]
EC50: 1 to 99 nM

CCN(CC)[C@@H](C(=O)N1C[C@@H](F)C[C@H]1c1ncc(-c2ccc(-c3ccc(-c4cnc([C@@H]5C[C@H](F)CN5C(=O)[C@H](C)NC(=O)OC)[nH]4)cc3)cc2)[nH]1)c1ccccc1 [JG-14, methyl ((1S)-2-((2S,4S)-2-(5-(4′-(2-((2S,4S)-1-((2R)-2-(diethylamino)-2-phenylacetyl)-4-fluoro-2-pyrrolidinyl)-1H-imidazol-5-yl)-4-biphenylyl)-1H-imidazol-2-yl)-4-fluoro-1-pyrrolidinyl)-1-methyl-2-oxoethyl)carbamate]
EC50: 0.001 to 0.999 nM

CCN(CC)[C@@H](C(=O)N1C[C@@H](F)C[C@H]1c1ncc(-c2ccc(-c3ccc(-c4cnc([C@@H]5C[C@H](F)CN5C(=O)[C@@H](NC(=O)OC)C(C)C)[nH]4)cc3)cc2)[nH]1)c1ccccc1 [JG-15, methyl ((1S)-1-(((2S,4S)-2-(5-(4′-(2-((2S,4S)-1-((2R)-2-(diethylamino)-2-phenylacetyl)-4-fluoro-2-pyrrolidinyl)-1H-imidazol-5-yl)-4-biphenylyl)-1H-imidazol-2-yl)-4-fluoro-1-pyrrolidinyl)carbonyl)-2-methylpropyl)carbamate]
EC50: 0.001 to 0.999 nM

COC(=O)N[C@H](C(=O)N1C[C@H](F)C[C@H]1c1ncc(-c2ccc(-c3ccc(-c4cnc([C@@H]5C[C@@H](F)CN5C(=O)[C@@H](NC(=O)OC)C(C)C)[nH]4)cc3)cc2)[nH]1)C(C)C [JG-16, methyl ((1S)-1-(((2S,4R)-4-fluoro-2-(5-(4′-(2-((2S,4R)-4-fluoro-1-((2S)-2-((methoxycarbonyl)amino)-3-methylbutanoyl)-2-pyrrolidinyl)-1H-imidazol-5-yl)-4-biphenylyl)-1H-imidazol-2-yl)-1-pyrrolidinyl)carbonyl)-2-methylpropyl)carbamate]
EC50: 0.001 to 0.999 nM

CCN(CC)[C@@H](C(=O)N1C[C@H](F)C[C@H]1c1ncc(-c2ccc(-c3ccc(-c4cnc([C@@H]5C[C@@H](F)CN5C(=O)[C@@H](c5ccccc5)N(CC)CC)[nH]4)cc3)cc2)[nH]1)c1ccccc1 [JG-17, (1R,1′R)-2,2′-(4,4′-biphenyldiylbis(1H-imidazole-5,2-diyl((2S,4R)-4-fluoro-2,1-pyrrolidinediyl)))bis(N,N-diethyl-2-oxo-1-phenylethanamine)]
EC50: 0.001 to 0.999 nM

O=C([C@@H](O)C1CCCCC1)N1CCC[C@H]1c1ncc(-c2ccc(-c3ccc(-c4cnc([C@@H]5CCCN5C(=O)[C@@H](O)C5CCCCC5)[nH]4)cc3)cc2)[nH]1 [LS2, (1S,1′S)-2,2′-(4,4′-biphenyldiylbis(1H-imidazole-5,2-diyl(2S)-2,1-pyrrolidinediyl))bis(1-cyclohexyl-2-oxoethanol)]
EC50: 1 to 99 nM

CC(C)C[C@H](O)C(=O)N1CCC[C@H]1c1ncc(-c2ccc(-c3ccc(-c4cnc([C@@H]5CCCN5C(=O)[C@@H](O)CC(C)C)[nH]4)cc3)cc2)[nH]1 [LS3, (2S,2′S)-1,1′-(4,4′-biphenyldiylbis(1H-imidazole-5,2-diyl(2S)-2,1-pyrrolidinediyl))bis(4-methyl-1-oxo-2-pentanol)]
EC50: 1 to 99 nM

CC(C)[C@H](O)C(=O)N1CCC[C@H]1c1ncc(-c2ccc(-c3ccc(-c4cnc([C@@H]5CCCN5C(=O)[C@@H](O)C(C)C)[nH]4)cc3)cc2)[nH]1 [LS4, (2S,2′S)-1,1′-(4,4′-biphenyldiylbis(1H-imidazole-5,2-diyl(2S)-2,1-pyrrolidinediyl))bis(3-methyl-1-oxo-2-butanol)]
EC50: 1 to 99 nM

CN[C@@H](C)C(=O)N1CCC[C@H]1c1ncc(-c2ccc(-c3ccc(-c4cnc([C@@H]5CCCN5C(=O)[C@H](C)NC)[nH]4)cc3)cc2)[nH]1 [LS6, (2S,2′S)-1,1′-(4,4′-biphenyldiylbis(1H-imidazole-5,2-diyl(2S)-2,1-pyrrolidinediyl))bis(N-methyl-1-oxo-2-propanamine)]
EC50: 100 to 999 nM

O=C1N[C@H](C(=O)N2CCC[C@H]2c2ncc(-c3ccc(-c4ccc(-c5cnc([C@@H]6CCCN6C(=O)[C@@H]6CCOC(=O)N6)[nH]5)cc4)cc3)[nH]2)CCO1 [LS11, (4S,4′S)-4,4′-(4,4′-biphenyldiylbis(1H-imidazole-5,2-diyl(2S)-2,1-pyrrolidinediylcarbonyl))bis(1,3-oxazinan-2-one)]
EC50: 1000 to 10000 nM

CCN(CC)[C@@H](C(=O)N1CCC[C@H]1c1ncc(-c2ccc(-c3ccc(-c4cnc([C@@H]5CCCN5C(=O)[C@@H](NC(=O)OC)C5CCOCC5)[nH]4)cc3)cc2)[nH]1)c1ccccc1 [LS14, methyl ((1S)-2-((2S)-2-(5-(4′-(2-((2S)-1-((2R)-2-(diethylamino)-2-phenylacetyl)-2-pyrrolidinyl)-1H-imidazol-5-yl)-4-biphenylyl)-1H-imidazol-2-yl)-1-pyrrolidinyl)-2-oxo-1-(tetrahydro-2H-pyran-4-yl)ethyl)carbamate]
EC50: 0.001 to 0.999 nM

C=CCCOC(=O)N[C@H](C(=O)N1CCC[C@H]1c1ncc(-c2ccc(-c3ccc(-c4cnc([C@@H]5CCCN5C(=O)[C@@H](NC(=O)OCCC=C)C(C)C)[nH]4)cc3)cc2)[nH]1)C(C)C [LS16, 3-buten-1-yl ((1S)-1-(((2S)-2-(5-(4′-(2-((2S)-1-((2S)-2-(((3-buten-1-yloxy)carbonyl)amino)-3-methylbutanoyl)-2-pyrrolidinyl)-1H-imidazol-5-yl)-4-biphenylyl)-1H-imidazol-2-yl)-1-pyrrolidinyl)carbonyl)-2-methylpropyl)carbamate]
EC50: 1 to 99 nM

CNCC(=O)N1CCC[C@H]1c1ncc(-c2ccc(-c3ccc(-c4cnc([C@@H]5CCCN5C(=O)[C@@H](NC(=O)OC)C(C)C)[nH]4)cc3)cc2)[nH]1 [LS20, methyl ((1S)-2-methyl-1-(((2S)-2-(5-(4′-(2-((2S)-1-(N-methylglycyl)-2-pyrrolidinyl)-1H-imidazol-5-yl)-4-biphenylyl)-1H-imidazol-2-yl)-1-pyrrolidinyl)carbonyl)propyl)carbamate]
EC50: 0.001 to 0.999 nM

CCNCC(=O)N1CCC[C@H]1c1ncc(-c2ccc(-c3ccc(-c4cnc([C@@H]5CCCN5C(=O)[C@@H](NC(=O)OC)C(C)C)[nH]4)cc3)cc2)[nH]1 [LS21, methyl ((1S)-1-(((2S)-2-(5-(4′-(2-((2S)-1-(N-ethylglycyl)-2-pyrrolidinyl)-1H-imidazol-5-yl)-4-biphenylyl)-1H-imidazol-2-yl)-1-pyrrolidinyl)carbonyl)-2-methylpropyl)carbamate]
EC50: 0.001 to 0.999 nM

COC(=O)N[C@H](C(=O)N1CCC[C@H]1c1ncc(-c2ccc(-c3ccc(-c4cnc([C@@H]5CCCN5C(=O)CNCc5ccccc5)[nH]4)cc3)cc2)[nH]1)C(C)C [LS22, methyl ((1S)-1-(((2S)-2-(5-(4′-(2-((2S)-1-(N-benzylglycyl)-2-pyrrolidinyl)-1H-imidazol-5-yl)-4-biphenylyl)-1H-imidazol-2-yl)-1-pyrrolidinyl)carbonyl)-2-methylpropyl)carbamate]
EC50: 0.001 to 0.999 nM

COC(=O)N[C@H](C(=O)N1CCC[C@H]1c1ncc(-c2ccc(-c3ccc(-c4cnc([C@@H]5CCCN5C(=O)CNCC(C)C)[nH]4)cc3)cc2)[nH]1)C(C)C [LS23, methyl ((1S)-1-(((2S)-2-(5-(4′-(2-((2S)-1-(N-isobutylglycyl)-2-pyrrolidinyl)-1H-imidazol-5-yl)-4-biphenylyl)-1H-imidazol-2-yl)-1-pyrrolidinyl)carbonyl)-2-methylpropyl)carbamate]
EC50: 0.001 to 0.999 nM

CCC(C)NCC(=O)N1CCC[C@H]1c1ncc(-c2ccc(-c3ccc(-c4cnc([C@@H]5CCCN5C(=O)[C@@H](NC(=O)OC)C(C)C)[nH]4)cc3)cc2)[nH]1 (stereo partly drawn) [LS24, methyl ((1S)-1-(((2S)-2-(5-(4′-(2-((2S)-1-(N-sec-butylglycyl)-2-pyrrolidinyl)-1H-imidazol-5-yl)-4-biphenylyl)-1H-imidazol-2-yl)-1-pyrrolidinyl)carbonyl)-2-methylpropyl)carbamate]
EC50: 0.001 to 0.999 nM
